Test system: continuously hydrated rats
Experiment: Antidiuresis test in continuously hydrated rats with additional water loading (oral administration)
Type: in vivo, rat
Settings: for urine production after additional water loads: groups with additional water loads (15 mL/kg at two and three hours after administration); for urine production after additional water loads / urine production: FIG. 1; for urine production: groups without additional water loads, two hours after administration, maintained until four hours; for change in plasma sodium level (in words): three hours and four hours after administration, additional water loads
Protocol: Male Wistar rats were used in the test. Initially, water load with 15 mL/kg of distilled water was forcedly administered to the rats. Every 30 minutes after loading water, urine volume collected during 30 minutes was measured and distilled water was forcedly administered to the rats in an amount equal to the urine volume excreted during the last 30 minutes. This water load procedure was repeated to the termination of the test to maintain the diuretic state. […] The individual groups were further divided into two subgroups, and additional distilled water of 15 mL/kg load was forcedly administered to one of the subgroups two times, i.e. at two hours and three hours after the administration. For comparison, the Vehicle group administered only with the vehicle was also subjected to the additional administrations of water load. Blood was collected from a half of the rats in each group subjected to additional administrations of water load, at three hours after the administration (immediately before the second additional water load) and from the other half at four hours after the administration, and plasma sodium levels were measured with an automatic electrolyte analyzer to determine the plasma sodium levels at three hours and four hours after the administration, respectively (each group consisted of seven to eight rats). Changes in the urine volume in individual groups are shown in FIG. 1, and the plasma sodium levels of the group administered with additional water loads are shown in Table 4.

change in plasma sodium level (in words) | Compound | urine production after additional water loads | urine production
slightly decreased | CC(C)C[C@H](N)[C@](O)(Cc1cc(O[C@H]2CC[C@H](C)CC2)ccn1)C(=O)O (relative stereo) [EX-a] | resumed after administration of the additional water loads | almost stopped
slightly decreased | CCSC[C@H](N)[C@](O)(Cc1cc(O[C@H]2CC[C@H](C)CC2)ccn1)C(=O)O [EX-b, (2R,3R)-3-amino-4-(ethylsulfanyl)-2-hydroxy-2-({4-[(trans-4-methylcyclohexyl)oxy]pyridin-2-yl}methyl)butanoic acid] | resumed after administration of the additional water loads | almost stopped

Compound | change in plasma sodium level (in words) | urine production after additional water loads | urine production
NC(=O)CC[C@@H]1NC(=O)[C@H](Cc2ccccc2)NC(=O)[C@H](Cc2ccc(O)cc2)NC(=O)CCSSC[C@@H](C(=O)N2CCC[C@H]2C(=O)N[C@H](CCCN=C(N)N)C(=O)NCC(N)=O)NC(=O)[C@H](CC(N)=O)NC1=O [dDAVP, Desmopressin, reference compound] | more significant decreases | urine production was not resumed | almost stopped

— US10975091B2, “Pyridine derivative” (Astellas Pharma Inc., priority 2014, dated 2021)
